Results as given in ChEMBL document CHEMBL1155507, “Synthesis, SAR and evaluation of [1,4']-bipiperidinyl-4-yl-imidazolidin-2-one derivatives as novel CCR5 antagonists” (Bioorg Med Chem Lett, 2010).

Assays:
[1] = Intrinsic clearance in human liver microsomes per mg of protein; assay type: ADME, Microsome
[2] = system: Human immunodeficiency virus 1; assay: Antiviral activity against HIV1 NL4-3 infected in human JC53-BL cells assessed as luciferase activity after 3 days post infection; assay type: functional, organism-based; settings: Human immunodeficiency virus 1, NL4-3, JC53BL, 72 h
[3] = Permeability from apical to basolateral side of human Caco-2 cells after 21 days; assay type: ADME, cell-based; settings: read-out: permeability
Caco-2 = assay: Efflux ratio of permeability from basolateral to apical over apical to basolateral side in human Caco-2 cells after 21 days; assay type: ADME, cell-based; settings: caco-2, 504 h
[4] = biological target: C-C chemokine receptor type 5 (Homo sapiens, UniProt P51681); assay: Binding affinity at CCR5 receptor by radiolabeled RANTES binding assay
C-C chemokine receptor type 5, sequence (P51681 whole entry): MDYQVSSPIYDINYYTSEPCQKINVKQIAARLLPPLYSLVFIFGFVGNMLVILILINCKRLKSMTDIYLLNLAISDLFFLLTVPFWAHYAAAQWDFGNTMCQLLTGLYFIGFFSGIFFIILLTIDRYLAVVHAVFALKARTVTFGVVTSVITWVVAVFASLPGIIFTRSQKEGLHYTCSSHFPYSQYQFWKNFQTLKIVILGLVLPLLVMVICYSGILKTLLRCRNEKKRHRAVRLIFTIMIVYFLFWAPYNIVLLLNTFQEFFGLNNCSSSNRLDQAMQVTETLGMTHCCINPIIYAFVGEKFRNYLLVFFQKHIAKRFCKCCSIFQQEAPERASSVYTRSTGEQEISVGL

Liver microsomes = assay: Intrinsic clearance in rat liver microsomes; assay type: ADME, Microsome
[5] = Cmax in rat at 1 mg/kg, po; assay type: ADME, organism-based; parameters: dose 1 mg/kg, route oral; settings: in vivo
[6] = Half life in rat at 1 mg/kg, iv; assay type: ADME, organism-based; parameters: dose 1 mg/kg, route intravenous; settings: in vivo
[7] = (§1) Oral bioavailability in rat at 1 mg/kg; assay type: ADME, organism-based; settings: in vivo
[8] = (§2) AUC in rat at 1 mg/kg, po; assay type: ADME, organism-based, Plasma; parameters: dose 1 mg/kg, route oral; settings: plasma
[9] = Clearance in rat at 1 mg/kg, iv; assay type: ADME, organism-based; parameters: dose 1 mg/kg, route intravenous; settings: in vivo
hERG (KCNH2) = hERG (KCNH2) (Homo sapiens, UniProt Q12809); assay: Inhibition of human ERG by patch clamp technique
hERG (KCNH2), sequence (Q12809 whole entry): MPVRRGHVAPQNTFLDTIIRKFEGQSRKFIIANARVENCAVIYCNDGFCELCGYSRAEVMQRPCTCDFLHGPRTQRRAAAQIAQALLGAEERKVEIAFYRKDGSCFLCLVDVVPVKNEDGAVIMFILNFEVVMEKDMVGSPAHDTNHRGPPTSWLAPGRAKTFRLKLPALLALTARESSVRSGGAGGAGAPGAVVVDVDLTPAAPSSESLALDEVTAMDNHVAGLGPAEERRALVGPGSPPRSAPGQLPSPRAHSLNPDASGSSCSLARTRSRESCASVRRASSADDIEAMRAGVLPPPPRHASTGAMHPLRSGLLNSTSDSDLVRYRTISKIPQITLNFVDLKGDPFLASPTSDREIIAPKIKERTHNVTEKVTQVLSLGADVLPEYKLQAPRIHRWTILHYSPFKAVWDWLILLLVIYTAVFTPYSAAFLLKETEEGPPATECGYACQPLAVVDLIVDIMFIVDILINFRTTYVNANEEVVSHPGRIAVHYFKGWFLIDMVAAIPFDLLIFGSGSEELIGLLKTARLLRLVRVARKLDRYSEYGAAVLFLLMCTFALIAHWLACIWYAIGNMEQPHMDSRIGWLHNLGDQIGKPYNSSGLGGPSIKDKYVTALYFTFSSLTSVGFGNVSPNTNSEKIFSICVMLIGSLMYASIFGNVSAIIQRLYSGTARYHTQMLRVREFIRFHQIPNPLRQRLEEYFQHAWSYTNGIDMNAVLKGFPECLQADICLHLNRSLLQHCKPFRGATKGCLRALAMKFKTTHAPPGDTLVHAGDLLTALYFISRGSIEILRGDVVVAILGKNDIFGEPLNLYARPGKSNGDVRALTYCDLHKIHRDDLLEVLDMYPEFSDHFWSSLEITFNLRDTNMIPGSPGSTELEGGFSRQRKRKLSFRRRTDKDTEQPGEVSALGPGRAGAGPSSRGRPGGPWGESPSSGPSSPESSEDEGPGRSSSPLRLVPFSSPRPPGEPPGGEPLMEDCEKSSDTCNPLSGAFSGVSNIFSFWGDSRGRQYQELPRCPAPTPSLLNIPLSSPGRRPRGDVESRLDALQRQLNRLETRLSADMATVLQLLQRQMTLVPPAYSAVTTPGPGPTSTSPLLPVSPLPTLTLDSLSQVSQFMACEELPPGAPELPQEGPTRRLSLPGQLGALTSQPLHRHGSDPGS

[10] = Oral bioavailability in cynomolgus monkey at 1 mg/kg; assay type: ADME, organism-based, Macaca fascicularis; settings: in vivo
[11] = Half life in cynomolgus monkey at 1 mg/kg, iv; assay type: ADME, organism-based, Macaca fascicularis; parameters: dose 1 mg/kg, route intravenous; settings: in vivo
[12] = AUC in cynomolgus monkey at 1 mg/kg, po; assay type: ADME, organism-based, Macaca fascicularis; parameters: dose 1 mg/kg, route oral; settings: plasma
[13] = Cmax in cynomolgus monkey at 1 mg/kg, po; assay type: ADME, organism-based, Macaca fascicularis; parameters: dose 1 mg/kg, route oral; settings: in vivo
[14] = Intrinsic clearance in cynomolgus monkey liver microsomes; assay type: ADME, Macaca fascicularis, Microsome
[15] = Clearance in cynomolgus monkey at 1 mg/kg, iv; assay type: ADME, organism-based, Macaca fascicularis; parameters: dose 1 mg/kg, route intravenous; settings: in vivo
Rattus norvegicus [16] = assay: as §1; assay type: ADME, organism-based; settings: in vivo
Rattus norvegicus [17] = assay: as §2; assay type: ADME, organism-based, Plasma; parameters: dose 1 mg/kg, route oral; settings: in vivo

Structure (SMILES)	microsomal CLint [1]	IC50 [2]	Papp A→B [3]	Ratio (Caco-2)	IC50 [4]	other results
CO[C@H]1CC[C@H](CN2C[C@@H](c3ccccc3)N(C3CCN(C4(C)CCN(C(=O)c5c(C)ncnc5C)CC4)CC3)C2=O)CC1	69 µL/min/mg	8 nM	1.4 ×10⁻⁶ cm/s	13	62 nM	–
Cc1ncnc(C)c1C(=O)N1CCC(C)(N2CCC(N3C(=O)N(CC4CCOCC4)C[C@@H]3c3ccccc3)CC2)CC1	–	> 650 nM	–	–	> 500 nM	–
CCCCC1CN(C2CCOCC2)C(=O)N1C1CCN(C2(C)CCN(C(=O)c3c(C)cc(C#N)nc3C)CC2)CC1 (racemic)	20 µL/min/mg	41 nM	1 ×10⁻⁶ cm/s	14	65 nM	–
CCO[C@H]1CC[C@H](CN2C[C@@H](c3ccccc3)N(C3CCN(C4(C)CCN(C(=O)c5c(C)ncnc5C)CC4)CC3)C2=O)CC1	47 µL/min/mg	3 nM	3 ×10⁻⁶ cm/s	4	6 nM	CL (Liver microsomes): 89 µL/min; Cmax [5]: 21 ng/mL; half-life [6]: 0.8 h; bioavailability [7]: 10%; AUC [8]: 49 ng·h/mL; clearance [9]: 65 mL/min/kg
Cc1ncnc(C)c1C(=O)N1CCC(C)(N2CCC(N3C(=O)N(CC4CCOCC4)CC3c3ccccc3)CC2)CC1 (racemic)	31 µL/min/mg	47 nM	0.4 ×10⁻⁶ cm/s	33	27 nM	CL (Liver microsomes): 14 µL/min; Cmax [5]: 56 ng/mL; half-life [6]: 1.5 h; bioavailability [7]: 27%; AUC [8]: 189 ng·h/mL; clearance [9]: 44 mL/min/kg; IC20 (hERG (KCNH2)): 22000 nM
Cc1ncnc(C)c1C(=O)N1CCC(C)(N2CCC(N3C(=O)N(CCC4CCOCC4)C[C@H]3c3ccccc3)CC2)CC1	96 µL/min/mg	25 nM	0.8 ×10⁻⁶ cm/s	24	8 nM	–
CCCCC1CN(CC2CCOCC2)C(=O)N1C1CCN(C2(C)CCN(C(=O)c3c(C)ncnc3C)CC2)CC1 (racemic)	36 µL/min/mg	335 nM	0.4 ×10⁻⁶ cm/s	40	43 nM	–
Cc1ncnc(C)c1C(=O)N1CCC(C)(N2CCC(N3C(=O)N(CC4CCN(S(C)(=O)=O)CC4)C[C@H]3c3ccccc3)CC2)CC1	224 µL/min/mg	7 nM	0.2 ×10⁻⁶ cm/s	38	34 nM	–
CNC(=O)N1CCC(CN2C[C@@H](c3ccccc3)N(C3CCN(C4(C)CCN(C(=O)c5c(C)ncnc5C)CC4)CC3)C2=O)CC1	13 µL/min/mg	99 nM	0.1 ×10⁻⁶ cm/s	13	32 nM	–
COC(=O)N1CCC(CN2C[C@@H](c3ccccc3)N(C3CCN(C4(C)CCN(C(=O)c5c(C)ncnc5C)CC4)CC3)C2=O)CC1	155 µL/min/mg	26 nM	0.3 ×10⁻⁶ cm/s	56	–	–
Cc1cc(C#N)nc(C)c1C(=O)N1CCC(C)(N2CCC(N3C(=O)N(C[C@H]4CC[C@H](O)CC4)C[C@H]3c3ccccc3)CC2)CC1	34 µL/min/mg	3 nM	0.4 ×10⁻⁶ cm/s	47	33 nM	–
Cc1ncnc(C)c1C(=O)N1CCC(C)(N2CCC(N3C(=O)N(CC4CCOCC4)C[C@H]3c3ccccc3)CC2)CC1	16 µL/min/mg	32 nM	0.5 ×10⁻⁶ cm/s	29	20 nM	bioavailability [10]: 14%; half-life [11]: 1.9 h; AUC [12]: 55 ng·h/mL; Cmax [13]: 16 ng/mL; microsomal CLint [14]: 65 µL/min/mg; clearance [15]: 39 mL/min/kg
CCCCC1CN(C2CCOCC2)C(=O)N1C1CCN(C2(C)CCN(C(=O)c3c(C)ncnc3C)CC2)CC1 (racemic)	9 µL/min/mg	> 625 nM	0.4 ×10⁻⁶ cm/s	52	84 nM	–
Cc1cc(C#N)nc(C)c1C(=O)N1CCC(C)(N2CCC(N3C(=O)N(CC4CCOCC4)C[C@H]3c3ccccc3)CC2)CC1	57 µL/min/mg	2 nM	1 ×10⁻⁶ cm/s	20	12 nM	–
Cc1cc(C#N)nc(C)c1C(=O)N1CCC(C)(N2CCC(N3C(=O)N(CC4CCOCC4)C[C@@H]3c3ccccn3)CC2)CC1	18 µL/min/mg	22 nM	0.1 ×10⁻⁶ cm/s	77	12 nM	CL (Liver microsomes): 87 µL/min; Cmax [5]: 38 ng/mL; half-life [6]: 1 h; bioavailability [7]: 19%; AUC [8]: 187 ng·h/mL; clearance [9]: 29 mL/min/kg
Cc1cc(C#N)nc(C)c1C(=O)N1CCC(C)(N2CCC(N3C(=O)N(C4CCOCC4)CC3c3ccccc3)CC2)CC1 (racemic)	–	–	–	–	–	bioavailability [10]: 42%; half-life [11]: 1.9 h; AUC [12]: 418 ng·h/mL; Cmax [13]: 133 ng/mL; microsomal CLint [14]: 33 µL/min/mg; IC20 (hERG (KCNH2)): 3500 nM; clearance [15]: 17 mL/min/kg
Cc1ncnc(C)c1C(=O)N1CCC(C)(N2CCC(N3C(=O)N(C[C@H]4CC[C@H](O)CC4)C[C@H]3c3ccccc3)CC2)CC1	12 µL/min/mg	8 nM	0.2 ×10⁻⁶ cm/s	61	20 nM	–
Cc1cc(C#N)nc(C)c1C(=O)N1CCC(C)(N2CCC(N3C(=O)N(C4CCOCC4)C[C@H]3c3ccccc3)CC2)CC1	15 µL/min/mg	7 nM	1 ×10⁻⁶ cm/s	12	21 nM	CL (Liver microsomes): 55 µL/min; Cmax [5]: 43 ng/mL; half-life [6]: 5.7 h; F (Rattus norvegicus [16]): 23%; AUC (Rattus norvegicus [17]): 85 ng·h/mL
CCO[C@H]1CC[C@H](CN2C[C@H](c3ccccn3)N(C3CCN(C4(C)CCN(C(=O)c5c(C)cc(C#N)nc5C)CC4)CC3)C2=O)CC1	40 µL/min/mg	9 nM	0.5 ×10⁻⁶ cm/s	30	25 nM	–
Cc1cc(C#N)nc(C)c1C(=O)N1CCC(C)(N2CCC(N3C(=O)N(C)C[C@H]3c3ccccc3)CC2)CC1	44 µL/min/mg	22 nM	0.6 ×10⁻⁶ cm/s	25	24 nM	–
CNC(=O)N1CCC(CN2C[C@@H](c3ccccc3)N(C3CCN(C4(C)CCN(C(=O)c5c(C)cc(C#N)nc5C)CC4)CC3)C2=O)CC1	53 µL/min/mg	25 nM	0.7 ×10⁻⁶ cm/s	10	26 nM	–
Cc1ncnc(C)c1C(=O)N1CCC(C)(N2CCC(N3C(=O)N(C4CCOCC4)C[C@H]3c3ccccc3)CC2)CC1	8 µL/min/mg	> 625 nM	0.6 ×10⁻⁶ cm/s	28	–	–
